The experiment deals with T1, CB1 receptor (Homo sapiens, UniProt P21554).
T1 construct: expressed in transfected cells
As to the kind of experiment: [35S]-GTPγS binding assay on membranes from cells stably transfected with the CB1 gene, inhibition of agonist CP55940 (EC80). The class given is biochemical. The following applies: half maximal inhibition of GTPγS binding in presence of EC80 concentration of CP55940; 30° C., 45 min. A general note: GTPγS is a poorly hydrolysed GTP analogue; its binding reports G protein activation.

For orientation: IC50 means the midpoint of a concentration-inhibition curve.

T1 sequence (P21554 whole entry): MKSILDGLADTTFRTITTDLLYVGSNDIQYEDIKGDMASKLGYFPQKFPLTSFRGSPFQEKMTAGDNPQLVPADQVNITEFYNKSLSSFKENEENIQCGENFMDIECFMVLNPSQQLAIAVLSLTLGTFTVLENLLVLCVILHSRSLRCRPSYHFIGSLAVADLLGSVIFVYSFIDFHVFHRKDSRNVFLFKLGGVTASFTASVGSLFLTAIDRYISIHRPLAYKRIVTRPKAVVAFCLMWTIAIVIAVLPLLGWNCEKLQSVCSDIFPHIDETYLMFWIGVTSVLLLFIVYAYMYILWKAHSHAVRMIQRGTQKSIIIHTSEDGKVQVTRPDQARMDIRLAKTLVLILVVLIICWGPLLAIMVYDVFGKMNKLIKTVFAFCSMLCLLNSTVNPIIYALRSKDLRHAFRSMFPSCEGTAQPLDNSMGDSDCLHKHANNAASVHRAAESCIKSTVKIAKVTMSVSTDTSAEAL
Protocol: 10 μg of membranes prepared from cells stably transfected with the CB1 gene were suspended in 200 μl of 100 mM NaCl, 5 mM MgCl2, 1 mM EDTA, 50 mM HEPES (pH 7.4), 1 mM DTT, 0.1% BSA and 100 μM GDP.
The reaction was allowed to proceed at 30° C. for 45 min. Samples were then transferred on to GF/B filters using a cell harvester and washed with wash buffer (50 mM Tris (pH 7.4), 5 mM MgCl2, 50 mM NaCl). Filters were then covered with scintillant and counted for the amount of [^35S]-GTPγS retained by the filter.
Activity is measured in the absence of all ligands (minimum activity) or in the presence of an EC80 concentration of CP55940 (maximum activity). These activities are set as 0% and 100% activity respectively. At various concentrations of novel ligand, activity is calculated as a percentage of the maximum activity and plotted. The data are fitted using the equation y=A+((B−A)/1+((C/x) UD)) and the IC50 value determined as the concentration required to give half maximal inhibition of GTPγS binding under the conditions used.

`CCS(=O)(=O)Oc1ccc(-n2c(-c3ccc(Cl)cc3Cl)nc(C(=O)NN3CCCCC3)c2C)cc1` [Example 2, Ethanesulfonic acid 4-[2-(2,4-dichlorophenyl)-5-methyl-4-(piperidin-1-ylcarbamoyl)-imidazol-1-yl]-phenyl ester]: the half-inhibitory concentration (IC50) was 28 nM.

The values are drawn from patent US7799804B2, “Therapeutic agents” (Astrazeneca AB, priority 2004, dated 2010).
